What was measured:
[1] = test system: voltage-gated sodium channels ([3H]BTX binding, rat cortex); assay: [3H]BTX binding assay, rat cortex membranes
Method: (§1) The following assays characterize the interaction of the compounds of Formula I with ligand binding sites on voltage-gated sodium channels.
(§2) Frozen tissues were obtained from Pel-Freez Biologicals (Rogers, AR). Tissues were homogenized in 10 volumes of a Tris-sucrose buffer (10 mM Tris-HCl, 250 mM sucrose, pH 7.4 at 4° C.) using 10 strokes with a glass-glass, hand-held homogenizer. The homogenates were filtered through nylon mesh and then centrifuged at 1,000×g for 15 minutes. The pellets were resuspended in a Hepes buffer (50 mM Hepes, 130 mM choline chloride, 5 mM glucose, 5.4 mM KCl, pH 7.4 at 4° C.). The resuspended pellets were centrifuged at 1,000×g for 15 minutes, resuspended in a Hepes buffer (50 mM Hepes, 130 mM choline chloride, 5 mM glucose, 5.4 mM KCl, pH 7.4 at 25° C.) and, frozen at -70° C. until used in binding assays.
Nonspecific binding was defined in the presence of 1 mM veratridine. Unless otherwise specified, PbTx (0.1 μM) and LqTx (50 μg/ml) were included in the assays. Membranes were incubated for 60 minutes at 25° C. and then filtered using GF/B glass fiber filters that had been pretreated with 0.3% PEI. Filters were rinsed with 3×1 ml of ice cold 50 mM Tris-HCl (pH 7.4 at 4° C.) and the bound radioactivity was determined by scintillation counting (Packard Top-count).

[2] = test system: voltage-gated sodium channels ([3H]BTX binding, rat heart); assay: [3H]BTX binding assay, rat heart membranes
Method: as §1, §2
(§3) Cell membranes prepared as in Example 10A above were incubated with 16 nM [^3 H]BTX in 250 μl of Hepes buffer (50 mM Hepes, 130 mM choline chloride, 5 mM glucose, 5.4 mM KCl, pH 7.4 at 25° C.). Nonspecific binding was defined in the presence of 1 mM veratridine. Unless otherwise specified, PbTx (0.1 μM) and LqTx (50 μg/ml) were included in the assays. […] Filters were rinsed with 3×1 ml of ice cold 50 mM Tris-HCl (pH 7.4 at 4° C.) and the bound radioactivity was determined by scintillation counting (Packard Top-count).

[3] = test system: voltage-gated sodium channels ([3H]BTX binding, rat dorsal root ganglion); assay: [3H]BTX binding assay, rat dorsal root ganglion membranes
Method: as §1, §2, §3

[4] = test system: [3H]STX binding site on the rat brain sodium channel; assay: [3H]STX binding assay
Method: as §1, §2
Membranes as prepared in Example 10A above were incubated at 37° C. for 30 minutes in 250 μl of a Hepes buffer (50 mM Hepes, 130 mM choline chloride, 5.5 mM glucose, 0.8 mM MgSO4, 5.4 mM KCl, pH 7.4 at 37° C.) containing 1 nM [^3 H]STX. Nonspecific binding was defined with 1 μM tetrodotoxin (TTX). […] The filters were rinsed with 3×1 ml ice cold H2 O and the bound radioactivity determined in a Packard 1900 liquid scintillation counter using Aquasol scintillation fluid.

[5] = test system: local anesthetic site of the sodium channel in rat brain cortex membranes; assay: [3H]PD85639 binding assay
Method: as §1, §2
Membranes as prepared in Example 10A above were incubated with 3 nM [^3 H]PD 85639 in 250 μl of Hepes buffer (50 mM Hepes, 130 mM choline chloride, 5 mM glucose, 5.4 mM KCl, pH 7.4 at 25° C. with Tris base). Nonspecific binding was defined in the presence of 0.1 mM PD85639. […] Filters were rinsed with 3×1 ml of ice cold 50 mM Tris-HCl (pH 7.4 at 4° C.) and the bound radioactivity was determined by scintillation counting (Packard Top-count).

[6] = test system: rat brain type IIA sodium channel; assay: [14C]Guanidinium ion influx assay, rat brain type IIA sodium channel in CHO cells; assay type: cell-based
Method: (§4) Chinese hamster ovary cells stably expressing the rat brain type IIA sodium channel subunit were maintained in RPMI 1640 with 10% fetal bovine serum and […] G-418. Chinese hamster lung cells stably expressing the human heart (hH1a) sodium channel subunit were maintained in DMEM with 5% fetal bovine serum and 300 μg/ml G-418. Both cells were subcultured and grown to confluence in 24-well plates 2-3 days before each experiment. After the growth medium was removed, the cells were washed with warm buffer (25 mM Hepes-Tris, 135 mM choline chloride, 5.4 mM potassium chloride, 0.98 mM magnesium sulfate, 5.5 mM glucose, and 1 mg/ml BSA, pH 7.4) and incubated in buffer on a 36° C. slide warmer for approximately 10 minutes. Various concentrations of the test compounds or standard sodium channel blockers (10 μl) and then veratridine (100 μM) were added to each well. After the cells were exposed to veratridine for 5 minutes, 5 μM of [^14 C]guanidinium was added, incubated with the radioligand, washed with 4 ml of ice-cold buffer, and dissolved in 0.1N sodium hydroxide. The radioactivity and the protein concentration of each cell lysate were determined by liquid scintillation counting and the protein assay using Pierce BCA reagent.

[7] = test system: human heart (hH1a) sodium channel; assay: [14C]Guanidinium ion influx assay, human heart (hH1a) sodium channel in Chinese hamster lung cells; assay type: cell-based
Method: as §4

[8] = Adverse effects / gross behavior on dosing; assay type: in vivo, rat
Method: The doses for the acute and chronic studies were selected on the basis of prior assessment of the acute effects on the test compounds on the gross behavior in normal rats. Briefly, the rats were weighed and grouped into cages, dosed with the test compound, and observed continuously for changes in behavior. […] Pinna and corneal reflexes were tested by using a piece of natural hair from a brush that is attached to a glass rod. The righting reflexes were tested by placing the rat flat on its back, and recording the time it takes for the animal to right itself onto all four legs. The posture and gait were assessed by placing the rat on the floor.
The selection of doses was similar to that of Example 12C.

neuropathic pain models = assay: Neuropathic pain models / standard assays (summary statements); assay type: in vivo; conditions: vs methylamine and propylamine analogues and isomers thereof
[9] = subcutaneous, cold allodynia acute study

Row | Compound | potency in rat cortex greater than in rat heart or rat dorsal root ganglion ([1]; [3H]BTX binding, rat cortex vs rat heart or dorsal root ganglion) | inhibition of [3H]BTX binding ([1]; rat cortex membranes) | inhibition of [3H]BTX binding [2] | inhibition of [3H]BTX binding [3] | affinity for the [3H]STX binding site [4] | inhibition of [3H]PD85639 binding to the local anesthetic site [5] | inhibition of veratridine-stimulated [14C]Guanidinium ion influx [6] | inhibition of veratridine-stimulated [14C]Guanidinium ion influx [7] | doses with adverse side effects / behavioral problems [8, 9] | adverse side effects observed ([8]; subcutaneous, cold allodynia acute study, doses higher than 60 mg/kg) | activity in standard assays compared with close analogues (neuropathic pain models) | potency of (R)- versus (S)-enantiomer in inhibiting [3H]BTX binding ([1]; rat brain cortex membranes) | doses with adverse side effects ([8]; oral administration, mechanical allodynia study) [mg/kg] | safety profile ([8]; oral administration, vs (S)-enantiomer) | safety profile ([8]; subcutaneous, cold allodynia acute study, vs racemate, (S)-enantiomer, or II)
1 | CCNC(C)COc1c(C)cccc1C (racemic) [Formula I racemate, [2-(2,6-dimethylphenoxy)-1-methylethyl]-ethylamine] | approximately 10 fold | inhibited | inhibited | inhibited | no detectable affinity | inhibited | inhibited | inhibited | higher than 60 mg/kg | convulsions and immobility | unexpectedly more active |  |  |  | 
2 | CCN[C@H](C)COc1c(C)cccc1C [Formula I (R)-, (R)-[2-(2,6-dimethylphenoxy)-1-methylethyl]-ethylamine] |  |  |  |  |  |  |  |  | ≥ 300 mg/kg |  |  | no difference in the potencies | ≥ 300 | cleaner safety profile | cleaner safety profile

From patent publication US5688830A, “Treatment of neuropathic pain” (Syntex (U.S.A.) Inc., priority 1997, dated 1997)
